# Results: patent publication US10085451B2, “Synergistic herbicidal composition containing penoxsulam and bentazon” (Dow AgroSciences LLC, priority 2010, dated 2018)
# Assays:
# [1] = system: Rice (ORYSA); test: Safening of injury in rice in the greenhouse; assay type: in vivo, Orysa sativa; details: 21 days after application
# Description: (§1) Seeds of the desired test plant species were planted in 80% mineral soil/20% grit planting mixture, which typically has a pH of 7.2 and an organic matter content of approximately 3 percent, in plastic pots with a surface area of 128 square centimeters (cm^2). The growing medium was steam sterilized. The plants were grown for 7-19 days (d) in a greenhouse with an approximate 14-hour (h) photoperiod which was maintained at about 29° C. during the day and 26° C. during the night. Nutrients and water were added on a regular basis and supplemental lighting was provided with overhead metal halide 1000-Watt lamps as necessary. The plants were treated with postemergence foliar applications when they reached the second to fourth true leaf stage. All treatments were applied using a randomized complete block trial design, with 4 replications per treatment. Treatments consisted of the compounds as listed in Tables 1 and 3, each compound applied alone and in combination. Formulated amounts of penoxsulam and bentazon, were placed in 60 milliliter (mL) glass vials and dissolved in a volume of 60 mL of a water solution containing Agri-dex crop oil concentrate in a 1% v/v ratio. […] Visual weed control was scored on a scale of 0 to 100 percent where 0 corresponds to no injury and 100 corresponds to complete kill. […]
# [2] = system: Cyperus iria; CYPIR; test: Postemergence herbicidal activity of mixtures in the greenhouse, sedge weed control; assay type: in vivo; details: 21 days after application
# Description: as §1, with “ratio. Compound requirements are based upon a 12 mL application volume at a rate of 187 liters per hectare (L/ha). Spray solutions of the mixtures were prepared by adding the stock solutions to the appropriate amount of dilution solution to form a 12 mL spray solution with active ingredients in single and two way combinations. Formulated compounds were applied to the plant material with an overhead Mandel track sprayer equipped with […] nozzles calibrated to deliver 187 L/ha at a spray height of 18 inches (43 centimeters (cm)) above average plant canopy. The treated plants and control plants were placed in a greenhouse as described above and watered by sub-irrigation to prevent wash-off of the test compounds.” for “ratio.”
# [3] = system: Echinochloa crus-galli (ECHCG); test: Postemergence herbicidal activity of mixtures in the field, grass weed control; assay type: in vivo; details: 6 to 45 days after application
# Description: Field trials were conducted in rice using standard herbicide small plot research methodology. Plots varied from 3×3 meter (m) to 3×10 m (width×length) with 4 replicates per treatment. The rice crop was grown using normal cultural practices for fertilization, seeding, watering, flooding and maintenance to ensure good growth of the crop and the weeds. All treatments in the field trials were applied using a CO2 backpack sprayer calibrated to apply 187 L/ha spray volume. Commercially available products of penoxsulam and bentazon were mixed in water at appropriate formulated product rates to achieve the desired rates based on a unit area of application (hectare) to achieve the desired rates as shown. Treatments were rated at 6 to 45 d after application as compared to the untreated control plants. Visual weed control was scored on a scale of 0 to 100 percent where 0 corresponds to no injury and 100 corresponds to complete kill. Colby's equation was used to determine the herbicidal effects expected from the mixtures (Colby, S. R. Calculation of the synergistic and antagonistic response of herbicide combinations. Weeds 1967, 15, 20-22.). The following equation was used to calculate the expected activity of mixtures containing two active ingredients, A and B: Expected=A+B−(A×B/100) A=observed efficacy of active ingredient A at the same concentration as used in the mixture. […]
# [4] = system: Sagittaria trifolia (SAGTR); test: Postemergence herbicidal activity of mixtures in the field, broadleaf weed control; assay type: in vivo; details: 6 to 45 days after application
# Description: Field trials were conducted in rice using standard herbicide small plot research methodology. Plots varied from 3×3 meter (m) to 3×10 m (width×length) with 4 replicates per treatment. The rice crop was grown using normal cultural practices for fertilization, seeding, watering, flooding and maintenance to ensure good growth of the crop and the weeds. All treatments in the field trials were applied using a CO2 backpack sprayer calibrated to apply 187 L/ha spray volume. Commercially available products of penoxsulam and bentazon were mixed in water at appropriate formulated product rates to achieve the desired rates based on a unit area of application (hectare) to achieve the desired rates as shown. Treatments were rated at 6 to 45 d after application as compared to the untreated control plants. Visual weed control was scored on a scale of 0 to 100 percent where 0 corresponds to no injury and 100 corresponds to complete kill. Colby's equation was used to determine the herbicidal effects expected from the mixtures (Colby, S. R. Calculation of the synergistic and antagonistic response of herbicide combinations. Weeds 1967, 15, 20-22.). The following equation was used to calculate the expected activity of mixtures containing two active ingredients, A and B: Expected=A+B−(A×B/100) A=observed efficacy of active ingredient A at the same concentration as used in the mixture. B=observed efficacy of active ingredient B at the same concentration as used in the mixture.
# [5] = bentazon-sodium 1000 g/ha alone
smiles,measurement,setting,value
"CC(C)N1C(=O)c2ccccc2NS1(=O)=O [Bentazon-Sodium, 3-(1-methylethyl)-1H-2,1,3-benzothiadiazin-4(3H)-one 2,2-dioxide]",% Control ORYSA Ob,[1]; bentazon-sodium 500 g/ha alone,14%
same,% Control ORYSA Ob,[1]; [5],16%
same,% Control CYPIR Ob,[2]; bentazon-sodium 500 g/ha alone,55%
same,% Control CYPIR Ob,[2]; [5],72%
same,% Control ECHCG Ob,[3]; bentazon-sodium 2000 g/ha alone,0%
same,% Control SAGTR Ob,[4]; bentazon-sodium 1100 g/ha alone,78%
"COc1cnc(OC)n2nc(NS(=O)(=O)c3c(OCC(F)F)cccc3C(F)(F)F)nc12 [Penoxsulam, 2-(2,2-difluoroethoxy)-N-(5,8-dimethoxy-[1,2,4]triazolo[1,5-c]pyrimidin-2-yl)-6-(trifluoromethyl)benzenesulfonamide]",% Control CYPIR Ob,[2]; penoxsulam 3 g/ha alone,20%
same,% Control ECHCG Ob,[3]; penoxsulam 38 g/ha alone,30%
same,% Control SAGTR Ob,[4]; penoxsulam 15 g/ha alone,38%
same,% Control SAGTR Ob,[4]; penoxsulam 23 g/ha alone,45%
